Test results as given in paper PMC8362001 (Angewandte Chemie (International Ed. in English), 2021).

How the values were obtained:
eGFP (C70M S147C) = eGFP (C70M S147C) (Aequorea victoria, UniProt P42212, C70M/F64L/H231L/S147C/S65T); experiment: Second-order rate constant of the reaction with eGFP, intact protein MS; conditions: one equivalent of eGFP (C70M S147C), Tris buffer pH 8.3, 90 μM, room temperature, eGFP C70M as internal standard, triplicate
[1] = Hydrolysis of the P−N bond under acidic conditions; type: physicochemical; conditions: slightly acidic conditions (pH≤3)

| Structure (SMILES) | second‐order rate constant (eGFP (C70M S147C)) | Hydrolytic stability of the P−N bond [1] |
| --- | --- | --- |
| C#CCCOP(=O)(C#C)C#C [compound 2] | approximately 0.47 M^−1 s^−1 |  |
| C#CP(=O)(C#C)N(CC)CC [II] |  | rapid hydrolysis of the P−N bond |
